Biological target: Bek (Homo sapiens, UniProt P21802)
Experiment: Inhibitory activity against Bek-autophosphorylation using ELISA method in OCUM-2MD3 cells
Type: cell-based
Conditions: 1 hr with compound, read-out: IC50 (concentration necessary for inhibiting 50% of Bek-phosphorylation)
Outline: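 Sandwich ELISA (anti-phosphotyrosine capture, anti-Bek detection, peroxidase, 450 nm) measured Bek autophosphorylation in OCUM-2MD3 lysates after 1 hr compound treatment at 37° C in 0.1% serum medium. IC50 derived by scaling between no-drug (100%) and excess positive control at 1000 nM (0%).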

Bek, sequence (P21802 431-767 limits assumed): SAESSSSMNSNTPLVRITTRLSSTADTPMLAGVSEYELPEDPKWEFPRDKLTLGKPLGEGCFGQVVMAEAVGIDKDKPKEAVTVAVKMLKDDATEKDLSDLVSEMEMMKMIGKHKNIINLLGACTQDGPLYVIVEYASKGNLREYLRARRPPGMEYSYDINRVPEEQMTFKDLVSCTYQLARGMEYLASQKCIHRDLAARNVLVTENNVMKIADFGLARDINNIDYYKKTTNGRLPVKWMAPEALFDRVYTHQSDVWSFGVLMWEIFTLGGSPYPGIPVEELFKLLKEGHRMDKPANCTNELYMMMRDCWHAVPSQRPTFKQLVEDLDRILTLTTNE

| IC50 | SMILES |
| --- | --- |
| 24.4 nM | COc1cc2c(Oc3ccc(NC(=O)NCCC(C)(C)C)c(Cl)c3)ccnc2cc1OCC1CCN(CCO)CC1 [Compound 170, 1-(2-Chloro-4-{7-[1-(2-hydroxy-ethyl)-piperidin-4-ylmethoxy]-6-methoxy-quinolin-4-yloxy}-phenyl)-3-(3,3-dimethyl-butyl)-urea] |
| 32.4 nM | COCCN1CCC(COc2cc3nccc(Oc4ccc(NC(=O)NCCC(C)(C)C)c(Cl)c4)c3cc2OC)CC1 [Compound 171, 1-(2-Chloro-4-{6-methoxy-7-[1-(2-methoxy-ethyl)-piperidin-4-ylmethoxy]-quinolin-4-yloxy}-phenyl)-3-(3,3-dimethyl-butyl)-urea] |
| < 10 nM | COc1cc2c(Oc3ccc(NC(=O)NCCC(C)(C)C)c(Cl)c3)ccnc2cc1OCCCN(C)C [Compound 172, 1-{2-Chloro-4-[7-(3-dimethylamino-propoxy)-6-methoxy-quinolin-4-yloxy]-phenyl}-3-(3,3-dimethyl-butyl)-urea] |
| 153 nM | COc1cc2c(Oc3ccc(NC(=O)NCCC(C)(C)C)c(Cl)c3)ccnc2cc1OCCN1C(=O)c2ccccc2C1=O [Compound 173, 1-(2-Chloro-4-{7-[2-(1,3-dioxo-1,3-dihydro-isoindol-2-yl)-ethoxy]-6-methoxy-quinolin-4-yloxy}-phenyl)-3-(3,3-dimethyl-butyl)-urea] |
| < 10 nM | COc1cc2c(Oc3ccc(NC(=O)NCCC(C)(C)C)c(Cl)c3)ccnc2cc1OCCN(CCO)CCO [Compound 176, 1-[4-(7-{2-[Bis-(2-hydroxy-ethyl)-amino]-ethoxy}-6-methoxy-quinolin-4-yloxy)-2-chloro-phenyl]-3-(3,3-dimethyl-butyl)-urea] |
| 10.6 nM | COc1cc2c(Oc3ccc(NC(=O)NCCC(C)(C)C)c(Cl)c3)ccnc2cc1OCCN(C)CCO [Compound 177, 1-[2-Chloro-4-(7-{2-[(2-hydroxy-ethyl)-methyl-amino]-ethoxy}-6-methoxy-quinolin-4-yloxy)-phenyl]-3-(3,3-dimethyl-butyl)-urea] |
| < 10 nM | COc1cc2c(Oc3ccc(NC(=O)NCCC(C)(C)C)c(Cl)c3)ccnc2cc1OCCCN(C)CCO [Compound 178, 1-[2-Chloro-4-(7-{3-[(2-hydroxy-ethyl)-methyl-amino]-propoxy}-6-methoxy-quinolin-4-yloxy)-phenyl]-3-(3,3-dimethyl-butyl)-urea] |
| 17.3 nM | COc1cc2c(Oc3ccc(NC(=O)NCCC(C)(C)C)c(Cl)c3)ccnc2cc1OCCCN1CCCC1 [Compound 179, 1-{2-Chloro-4-[6-methoxy-7-(3-pyrrolidin-1-yl-propoxy)-quinolin-4-yloxy]-phenyl}-3-(3,3-dimethyl-butyl)-urea] |
| 22.7 nM | COc1cc2c(Oc3ccc(NC(=O)NCCC(C)(C)C)c(Cl)c3)ccnc2cc1OCCCN1CCCCC1 [Compound 180, 1-{2-Chloro-4-[6-methoxy-7-(3-piperidin-1-yl-propoxy)-quinolin-4-yloxy]-phenyl}-3-(3,3-dimethyl-butyl)-urea] |
| 26.2 nM | COc1cc2c(Oc3ccc(NC(=O)NCCC(C)(C)C)c(Cl)c3)ccnc2cc1OCCCN1CCCCCC1 [Compound 181, 1-{4-[7-(3-Azepan-1-yl-propoxy)-6-methoxy-quinolin-4-yloxy]-2-chloro-phenyl}-3-(3,3-dimethyl-butyl)-urea] |
| 9.5 nM | COc1cc2c(Oc3ccc(NC(=O)NCCC(C)(C)C)c(Cl)c3)ccnc2cc1OCCCN1CCOCC1 [Compound 182, 1-{2-Chloro-4-[6-methoxy-7-(3-morpholin-4-yl-propoxy)-quinolin-4-yloxy]-phenyl}-3-(3,3-dimethyl-butyl)-urea] |
| 15.4 nM | CCN(CC)CCCOc1cc2nccc(Oc3ccc(NC(=O)NCCC(C)(C)C)c(Cl)c3)c2cc1OC [Compound 183, 1-{2-Chloro-4-[7-(3-diethylamino-propoxy)-6-methoxy-quinolin-4-yloxy]-phenyl}-3-(3,3-dimethyl-butyl)-urea] |
| 9.2 nM | COc1cc2c(Oc3ccc(NC(=O)NCCC(C)(C)C)c(Cl)c3)ccnc2cc1OCCCN(CCO)CCO [Compound 184, 1-[4-(7-{3-[Bis-(2-hydroxy-ethyl)-amino]-propoxy}-6-methoxy-quinolin-4-yloxy)-2-chloro-phenyl]-3-(3,3-dimethyl-butyl)-urea] |
| 54.8 nM | COc1cc2c(Oc3ccc(NC(=O)NCCC(C)(C)C)c(Cl)c3)ccnc2cc1OCCN1CCCCCC1 [Compound 185, 1-{4-[7-(2-Azepan-1-yl-ethoxy)-6-methoxy-quinolin-4-yloxy]-2-chloro-phenyl}-3-(3,3-dimethyl-butyl)-urea] |
| 18.3 nM | COc1cc2c(Oc3ccc(NC(=O)NCCC(C)(C)C)c(Cl)c3)ccnc2cc1OCCN1CCCN(C)CC1 [Compound 186, 1-(2-Chloro-4-{6-methoxy-7-[2-(4-methyl-[1,4]diazepan-1-yl)-ethoxy]-quinolin-4-yloxy}-phenyl)-3-(3,3-dimethyl-butyl)-urea] |
| 22.3 nM | COc1cc2c(Oc3ccc(NC(=O)NCCC(C)(C)C)c(Cl)c3)ccnc2cc1OCCCN1CCN(C)CC1 [Compound 187, 1-(2-Chloro-4-{6-methoxy-7-[3-(4-methyl-piperazin-1-yl)-propoxy]-quinolin-4-yloxy}-phenyl)-3-(3,3-dimethyl-butyl)-urea] |
| 29.9 nM | COc1cc2c(Oc3ccc(NC(=O)NCCC(C)(C)C)c(Cl)c3)ccnc2cc1OCCCN1CCCN(C)CC1 [Compound 188, 1-(2-Chloro-4-{6-methoxy-7-[3-(4-methyl-[1,4]diazepan-1-yl)-propoxy]-quinolin-4-yloxy}-phenyl)-3-(3,3-dimethyl-butyl)-urea] |
| 33.5 nM | COc1cc2c(Oc3ccc(NC(=O)NCCC(C)(C)C)c(Cl)c3)ccnc2cc1OCC1CCCNC1 (centres unmarked) [Compound 190, 1-{2-Chloro-4-[6-methoxy-7-(piperidin-3-ylmethoxy)-quinolin-4-yloxy]-phenyl}-3-(3,3-dimethyl-butyl)-urea] |
| 10.6 nM | CCN(CC)CC(O)COc1cc2nccc(Oc3ccc(NC(=O)NCCC(C)(C)C)c(Cl)c3)c2cc1OC (centres unmarked) [Compound 191, 1-{2-Chloro-4-[7-(3-diethylamino-2-hydroxy-propoxy)-6-methoxy-quinolin-4-yloxy]-phenyl}-3-(3,3-dimethyl-butyl)-urea] |
| 9.1 nM | COc1cc2c(Oc3ccc(NC(=O)NCCC(C)(C)C)c(Cl)c3)ccnc2cc1OCC(O)CN1CCCC1 (centres unmarked) [Compound 192, 1-{2-Chloro-4-[7-(2-hydroxy-3-pyrrolidin-1-yl-propoxy)-6-methoxy-quinolin-4-yloxy]-phenyl}-3-(3,3-dimethyl-butyl)-urea] |
| 17.4 nM | COc1cc2c(Oc3ccc(NC(=O)NCCC(C)(C)C)c(Cl)c3)ccnc2cc1OCC(O)CN1CCCCC1 (centres unmarked) [Compound 193, 1-{2-Chloro-4-[7-(2-hydroxy-3-piperidin-1-yl-propoxy)-6-methoxy-quinolin-4-yloxy]-phenyl}-3-(3,3-dimethyl-butyl)-urea] |
| 19.7 nM | COc1cc2c(Oc3ccc(NC(=O)NCCC(C)(C)C)c(Cl)c3)ccnc2cc1OCC(O)CN1CCCCCC1 (centres unmarked) [Compound 194, 1-{4-[7-(3-Azepan-1-yl-2-hydroxy-propoxy)-6-methoxy-quinolin-4-yloxy]-2-chloro-phenyl}-3-(3,3-dimethyl-butyl)-urea] |

| SMILES | IC50 |
| --- | --- |
| COc1cc2c(Oc3ccc(NC(=O)NCCC(C)(C)C)c(Cl)c3)ccnc2cc1OCCCCN [Compound 175, 1-{4-[7-(4-Amino-butoxy)-6-methoxy-quinolin-4-yloxy]-2-chloro-phenyl}-3-(3,3-dimethyl-butyl)-urea] | 21.7 nM |

— patent US7495104B2, “Quinoline or quinazoline derivatives inhibiting auto-phosphorylation of fibroblast growth factor receptors” (Kirin Beer Kabushiki Kaisha, priority 2001, dated 2009)
